Reference: US12516063B2, “Substituted 7-(methylamino)pyrazolo[1,5-a]pyrimidine-3-carboxamide derivatives for treating autoimmune diseases” (Eli Lilly and Company, priority 2020, dated 2026)

Legend:
[1] = system: IFNα signaling through pSTAT1 in TF1 cells; assay: Inhibition of IFNα Signaling Through pSTAT1 in TF1 Cells; format: cell-based; settings: Homo sapiens, TF-1, 1 hour pre-incubation, 10 ng/mL IFNα2 for 20 minutes, GeoMetric mean (SEM), read-out: IC50 (inhibition of p-Stat1 (Tyr701))
Procedure: TF1 cells (ATCC, CL-2003) are grown in RPMI 1640 (GIBCO) supplemented with 10% dialyzed FBS, 0.1 mg/mL Ampicillin and 2 ng/mL granulocyte macrophage colony stimulating factor. TF1 cells (100 K per well) are seeded in a 96-well poly-D-lysine coated plates in serum-free DMEM and incubated overnight at 37° C. under 5% CO2. Example 1 is serially diluted in DMSO, added to the cells, and incubated at 37° C. for 1 hour. Cells are then stimulated with 10 ng/mL IFNα2 at 37° C. for 20 minutes. After removing the medium, the cells are lysed in buffer containing Halt protease and phosphatase inhibitor cocktail (Thermo Scientific #78441) at ambient temperature for 30 minutes. The amount of p-Stat1 (Tyr701) is quantified as light emission at 615 nm using the AlphaLISA SureFire Ultra p-Stat1 (Tyr701) assay kit (Perkin Elmer #ALSU-PST1-A50K) following the vendor's recommended protocol.

[2] = system: IL-23 signaling (STAT3 phosphorylation) in Kit225 cells; assay: IL23 pSTAT3 AlphaLISA Assay; format: cell-based; settings: 1 hour pre-incubation, IL23 25 ng/mL for 30 minutes, GeoMetric mean (SEM), read-out: relative IC50 (IL23 pSTAT3 AlphaLISA)
Procedure: IL2-dependent Kit225 cells (University of Texas MD Anderson Cancer Center) expressing endogenous IL23 receptors are stably transduced with the Lenti STAT3 Reporter linked to firefly luciferase (SABiosciences CLS-6028L). These cells are used to monitor TYK2 activity by quantifying gene expression caused by STAT3 phosphorylation following induction by IL23 in the presence of IL2 using AlphaLISA technology (TGR Biosciences ALSU-TST3-A50K). The cells are grown in RPMI 1640 (Gibco 22400) supplemented with 10% FBS (Invitrogen 10082), 1×Pen/Strep (Gibco 15140-122), 200 ng/ml Puromycin (Sigma P9620), and fresh 10 ng/ml recombinant human IL2 (R&D Systems 202-IL-50).
For assay preparation, cells are dispensed into Biocoat black poly-d-lysine coated clear bottom 384-well plates (Becton Dickinson Bio-Coat 35-4640) in DMEM (Sigma D5796) at 300,000 cells/well and allowed to incubate overnight at 37° C. Compounds solubilized in DMSO are serially diluted 1:3 to produce a 10-point concentration response curve (final DMSO=0.1%). Cells are pre-incubated with Example 1 for 1 hour at 37° C., then stimulated with IL23 (25 ng/mL final) for 30 minutes. […] The AlphaLISA reaction is performed following the vendor's recommended protocol, and the […] are measured using an Envision plate reader (Perkin Elmer).

[3] = target: T1, pseudokinase domain (JH2) of human TYK2 (Homo sapiens, UniProt P29597); assay: TYK2-JH2 Tracer Binding Assay; settings: His-tagged TYK2-JH2 0.200 nM, Tracer 2.00 nM, 30 minutes, TR-FRET; n=1
T1 construct: The pseudokinase domain (JH2) of human JAK (Janus family of cytoplasmic tyrosine kinases) family tyrosine kinase 2 (TYK2); made in house
T1 sequence (P29597 589-875 limits assumed): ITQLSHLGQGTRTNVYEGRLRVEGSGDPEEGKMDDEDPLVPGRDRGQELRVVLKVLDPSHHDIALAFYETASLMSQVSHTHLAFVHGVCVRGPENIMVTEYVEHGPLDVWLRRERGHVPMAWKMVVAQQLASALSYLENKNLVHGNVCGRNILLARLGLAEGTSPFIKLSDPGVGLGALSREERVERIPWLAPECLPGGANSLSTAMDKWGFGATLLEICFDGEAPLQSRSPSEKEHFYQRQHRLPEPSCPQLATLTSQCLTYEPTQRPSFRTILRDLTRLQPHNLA
Source text: The pseudokinase domain (JH2) of human JAK (Janus family of cytoplasmic tyrosine kinases) family tyrosine kinase 2 (TYK2) (Genbank NP_003322) with an N-terminal His6 tag is expressed in baculovirus and purified by HisPur Ni-NTA affinity and Superdex 200 size-exclusion chromatography. The compound prepared in Preparation 11, a conjugate of Alexa Fluor 647 dye (Thermo Fisher Scientific) and a suitable TYK2 JH2 binder, is referred to herein as “the Tracer”. A 3 fold, 10 point serial dilution of compound, Example 1 and Example 2, are prepared in 100% DMSO and 50 nL/well transferred to a Proxiplate-384F white plate (PerkinElmer 6008280) using acoustic liquid handling. Control wells used to determine percent inhibition contained 100% DMSO (50 nL) and either assay buffer containing the Tracer (2.00 nM final concentration) (min, low FRET) or diluted TYK2-JH2 enzyme (0.200 nM final concentration) and the Tracer (2.00 nM final concentration) (max, high FRET). […] After 30 minutes, the plate is counted on a PerkinElmer Envision with the following settings: Excitation (340 nm), Tracer Emission (665 nm) and LanthaScreen Eu-anti-His Antibody Emission (615 nm). The ratio of Tracer Emission (665 nm) over LanthaScreen Eu-anti-His Antibody Emission (615 nm) is determined.

IC50 [1] [nM]	IC50 [2] [nM]	IC50 [3] [nM]	Compound
38	29	< 0.254	CCOc1cccc(Nc2cc(NC)n3ncc(C(=O)N[C@@H]4CCN(C)C4=O)c3n2)n1 [Example 1, 5-[(6-Ethoxy-2-pyridyl)amino]-7-(methylamino)-N-[(3R)-1-methyl-2-oxo-pyrrolidin-3-yl]pyrazolo[1,5-a]pyrimidine-3-carboxamide]
84	60	< 0.254	CNc1cc(Nc2cc(C)cc(C)n2)nc2c(C(=O)N[C@@H]3CCN(C)C3=O)cnn12 [Example 2, 5-[(4,6-Dimethyl-2-pyridyl)amino]-7-(methylamino)-N-[(3R)-1-methyl-2-oxo-pyrrolidin-3-yl]pyrazolo[1,5-a]pyrimidine-3-carboxamide]
